For 59 molecules, IC90, IC50 and inhibition results are on record in PubChem BioAssay AID504860 (Southern Research Specialized Biocontainment Screening …, 2011).

Assay [1] relates to M. tuberculosis H37Rv growth inhibition, glycerol-free medium. The assay is described as follows: confirmation, H37Rv, purified and synthesized compounds, set 4 (AID 504860). The conditions noted are these: for IC50: measured here: growth inhibition IC50.
Assay in assay [2]: as above
The following applies: M. tuberculosis H37Rv growth inhibition, glycerol-free medium; at 100 µM (top of the series).

The source made the active and inactive calls. No rule for the calls is given here. Bounds are passed on as bounds.

For `CC1CCN(C(=O)C2CCN(c3nnc(-n4cccc4)s3)CC2)CC1`, in assay [1], the IC90 is 7.33 µM and the concentration for half-maximal inhibition (IC50) is 3.2 µM. On to `COc1cccc(NC(=O)CSc2nc3c(c(=O)[nH]2)CCC3)c1`, for which the inhibition in assay [2] was -4.12% (inactive).

`Cc1c[nH]c(=S)[nH]c1=O`: the inhibition in assay [2] is 2.03% (inactive). On to `Cc1cccc(-c2oc3ccc(-c4ccc5c(c4)OCO5)cc3c2C#Cc2cncn2C)c1`, for which, in assay [1], the concentration for an effect of 90% (IC90) was 3.08 µM and the IC50 was found to be 2.5 µM. For `Cc1nc(SCC(=O)NC2CCCC2)[nH]c(=O)c1C` the same measures were 15.6 µM and 9.11 µM. For `CCOC1OC(=O)C(Cl)=C1Nc1ccccc1C` (stereo not drawn) the same measures were 9.47 µM and 3.2 µM. For `Cc1[nH]c2ccccc2c1C(=O)COC(=O)c1ccc([N+](=O)[O-])s1`, in that order: 5.21 µM and 2.53 µM. Consider `CN1CCC(NC(=O)CSc2nc3ccccc3c(=O)[nH]2)CC1`, for which the inhibition in assay [2] was 8.01% (inactive).

For `Cc1ccc(NC(=O)CSc2nc3ccccc3c(=O)[nH]2)cc1Cl`, in assay [2], the inhibition is 7.6% (inactive). For `Cc1cc(C)n2nc(N)c(N=Nc3ccccc3)c2n1`, in assay [1], the IC90 was 6.75 µM and the IC50 is 4.45 µM. With `Nc1cc(=O)[nH]c(SCC(=O)NC2CCCCC2)n1`, in assay [2], the inhibition was -0.72% (inactive). On to `CC(C)NC(=O)CSc1nc2ccccc2c(=O)[nH]1`, for which, in assay [1], the IC90 was 19.3 µM and the IC50 came to 11.5 µM. In the case of `COc1cccc(NC(=O)CSc2nc3ccccc3c(=O)[nH]2)c1`, the inhibition in assay [2] is 4.59% (inactive). Same read-out and setting: the result for `CCC(Sc1nc2ccccc2c(=O)[nH]1)C(=O)NC1CCCCC1` (stereo not drawn) reads 3.23% (inactive).

On to `COC(=O)C(Nc1nc(SCC(=O)NC2CCCCC2)nc2ccccc12)c1ccccc1` (stereo not drawn), for which the inhibition in assay [2] is 5.93% (inactive). On the same count and under the same terms, the result for `CN(C)C(=O)CSc1nc2ccccc2c(=O)[nH]1` reads 9.4% (inactive); that for `O=C(CSc1ncccn1)NC1CCCCC1`, 0.1% (inactive). In assay [1], `Cc1cc(Br)ccc1NC(=O)c1cnc(N2CCN(c3ccccn3)CC2)c2ccccc12` showed an IC50 of 11.4 µM. In other words, the double-digit micromolar range. In the case of `O=C(CSc1nc2ccccc2c(=O)[nH]1)NC1CCCC1`, in assay [1], the IC90 is 0.85 µM and the 50% inhibitory concentration (IC50) is 0.43 µM. In the case of `CC(C)CCNC(=O)CSc1nc2c(c(=O)[nH]1)CCC2`, in assay [1], the 90% effect concentration (IC90) was 2.69 µM and the IC50 was 1.68 µM.

As for `Cc1ccc(NC(=O)COC(=O)CCc2c[nH]c3ccccc23)cc1[N+](=O)[O-]`, in assay [1], the IC90 is 7.41 µM and the half-maximal inhibitory concentration (IC50) was found to be 3.2 µM. In the case of `CCOC(=O)CSc1nc(C)c(C)c(=O)[nH]1`, the inhibition in assay [2] is 8.77% (inactive). Turning to `O=C(CSc1nc2ccccc2c(=O)[nH]1)NC1CCCCC1`, in assay [1], the 90% effect concentration (IC90) is 0.52 µM and the half-maximal inhibitory concentration (IC50) amounted to 0.31 µM. On to `O=c1[nH]c(=S)[nH]c2ccccc12`, for which the inhibition in assay [2] was 2.16% (inactive). Same read-out and setting: the result for `O=C(CSc1nccc(=O)[nH]1)NC1CCCCC1` reads 7.67% (inactive); that for `CCC(Sc1nc2ccccc2c(=O)[nH]1)C(=O)Nc1cccc(OC)c1` (stereo not drawn), 14.3% (inactive).

Take `Cc1nc(SCC(=O)NCCC(C)C)[nH]c(=O)c1C`: in assay [1], the IC90 is 13.3 µM and the IC50 is 8.78 µM. Consider `O=C(CSc1ccccn1)NC1CCCCC1`, for which the inhibition in assay [2] was 6.13% (inactive). Consider `O=C(CSc1nc2ccccc2c(=O)[nH]1)NCc1ccc(Cl)cc1`, for which, in assay [1], the concentration for an effect of 90% (IC90) is 1.58 µM and the 50% inhibitory concentration (IC50) was determined as 1.07 µM. Turning to `CCSc1nc2ccccc2c(=O)[nH]1`, in assay [2], the inhibition is 10.8% (inactive). On the same count and under the same terms, the result for `CCSc1nc(C)c(C)c(=O)[nH]1` reads 2.48% (inactive). Take `COC(=O)C(C)Oc1ccc(Cc2ncc(C(F)(F)F)cc2Cl)cc1` (stereo not drawn): in assay [1], the IC90 was 5.63 µM and the IC50 came out at 3.62 µM. For `CC(C)CCNC(=O)CSc1nc2ccccc2c(=O)[nH]1`, in assay [1], the 90% effect concentration (IC90) was 0.21 µM and the 50% inhibitory concentration (IC50) was less than 0.01 µM. For `Cc1cccc(/C=C/C(=O)c2ccc([N+](=O)[O-])o2)c1` the same measures were 2.22 µM and 1.46 µM. As to `COC(=O)c1ccc(CNc2c(N3CCCC3)c(=O)c2=O)cc1`, the inhibition in assay [2] was 4.83% (inactive). Consider `Nc1c(C(=O)NC2CCCCC2)nsc1C(=O)OCC(=O)NC1CCCCC1`, for which, in assay [1], the concentration for an effect of 90% (IC90) is 8.13 µM and the IC50 came out at 4.25 µM.

`O=c1[nH]c(SCc2ccccc2Cl)nc2c1CCCC2`: in assay [2], the inhibition was 9.5% (inactive). Consider `Cc1ccc(C(=O)N/N=C(/CC(=O)c2cccs2)C(F)(F)F)cc1`, for which, in assay [1], the concentration for an effect of 90% (IC90) was 2.83 µM and the IC50 was found to be 1.33 µM. Turning to `CC1CCN(C(=O)CSc2nc3ccccc3c(=O)[nH]2)CC1`, the inhibition in assay [2] is 8.81% (inactive). On to `COc1ccc(NC(=O)CSc2nc3ccccc3c(=O)[nH]2)cc1`, for which the inhibition in assay [2] is 11.4% (inactive). For the molecule `CC[N+](C)(CC)CCCCOc1ccc2c(c1)C(=O)c1cc(OCCCC[N+](C)(CC)CC)ccc1-2`, in assay [1], the IC90 is 3.06 µM and the half-maximal inhibitory concentration (IC50) stood at 2.14 µM.

Take `Cc1[nH]c(=S)[nH]c(=O)c1C`: in assay [2], the inhibition was 6.28% (inactive). With `O=C(CSc1nc2c(c(=O)[nH]1)CCC2)NC1CCCCC1`, in assay [1], the 90% effect concentration (IC90) was less than 0.01 µM and the IC50 is less than 0.01 µM.

`Cc1nc(SCc2ccccc2Cl)[nH]c(=O)c1C`: in assay [2], the inhibition is 6.97% (inactive). As to `c1ccc(/N=C2\N=C(Nc3ccccn3)c3ccccc32)nc1`, in assay [1], the 90% effect concentration (IC90) was 2.46 µM and the IC50 stood at 1.68 µM. Regarding `CC(Sc1nc2ccccc2c(=O)[nH]1)C(=O)NC1CCCCC1` (stereo not drawn), in assay [2], the inhibition was 6.58% (inactive).

Consider `O=C(CSc1nc2c(c(=O)[nH]1)CCCC2)NC1CCCCC1`, for which, in assay [1], the IC90 is less than 0.01 µM and the IC50 is less than 0.01 µM. With `Cc1nc(SCC(N)=O)[nH]c(=O)c1C`, the inhibition in assay [2] is 4.67% (inactive).

As to `Cc1cc(=O)[nH]c(SCC(=O)NC2CCCCC2)n1`, the inhibition in assay [2] is -0.61% (inactive). Same read-out and setting: then `Cn1c(SCC(=O)NC2CCCCC2)nc2ccccc2c1=O`, with 6.07% (inactive); and `Cc1cnc(SCC(=O)NC2CCCCC2)[nH]c1=O`, with 3.92% (inactive); and `CCC(Sc1nc2c(c(=O)[nH]1)CCC2)C(=O)Nc1cccc(OC)c1` (stereo not drawn), with -0.78% (inactive).

As for `NC(=O)CSc1nc2ccccc2c(=O)[nH]1`, the inhibition in assay [2] was 10.4% (inactive).

Regarding `Cc1cc(=O)[nH]c(=S)[nH]1`, in assay [2], the inhibition was -3.23% (inactive). On the same count and under the same terms, then `CN(C(=O)CSc1nc2ccccc2c(=O)[nH]1)C1CCCCC1`, with 9.68% (inactive). Take `CNC(=O)CSc1nc2ccccc2c(=O)[nH]1`: in assay [1], the IC90 was 99.1 µM and the half-maximal inhibitory concentration (IC50) was greater than 68.7 µM.

For `O=C(CSc1nc2ccccc2c(=O)[nH]1)N1CCOCC1`, in assay [2], the inhibition was 11.1% (inactive). On the same count and under the same terms, the result for `Cc1nc(SCC(=O)N(C)c2ccccc2)[nH]c(=O)c1C` reads 6.73% (inactive). Regarding `CCOc1ccc(-c2cc(C)[n+](CCc3ccc(OC)c(OC)c3)c(-c3ccc(OCC)cc3)c2)cc1`, in assay [1], the IC90 was 1.63 µM and the IC50 was 1.01 µM.

As a reminder, the IC90 is the concentration at which the effect reaches the 90% level. As usually defined, the IC50 is the concentration needed to halve the response being measured. Higher therefore signals weaker potency in that assay. By inhibition is commonly meant the change of the read-out against control, counted positive when it falls.
